Data from US11046699B2, “Pyrazolo-pyrimidin-amino-cycloalkyl compounds and their therapeutic uses” (RAPT THERAPEUTICS, INC., priority 2018, dated 2021).

The compounds below were run against GCN2 (Homo sapiens, UniProt Q9P2K8) (assay: GCN2 enzymatic endpoint assay: phosphorylation of GFP-eIF2α measured by TR-FRET (Lanthascreen)). Settings: GCN2 biochemical IC50; 4 nM GCN2, 2 μM ATP, 80 nM GFP-eIF2α, 90 min RT; read-out: GCN2 activity.
Format: biochemical
Method in brief: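 Phosphorylated eIF2α read by Lanthascreen TR-FRET (acceptor 520 nm over donor 495 nm) after EDTA stop. The reaction ran 90 min at room temperature on 80 nM GFP-eIF2α with 2 μM ATP.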

Chain of GCN2 (Q9P2K8 whole entry): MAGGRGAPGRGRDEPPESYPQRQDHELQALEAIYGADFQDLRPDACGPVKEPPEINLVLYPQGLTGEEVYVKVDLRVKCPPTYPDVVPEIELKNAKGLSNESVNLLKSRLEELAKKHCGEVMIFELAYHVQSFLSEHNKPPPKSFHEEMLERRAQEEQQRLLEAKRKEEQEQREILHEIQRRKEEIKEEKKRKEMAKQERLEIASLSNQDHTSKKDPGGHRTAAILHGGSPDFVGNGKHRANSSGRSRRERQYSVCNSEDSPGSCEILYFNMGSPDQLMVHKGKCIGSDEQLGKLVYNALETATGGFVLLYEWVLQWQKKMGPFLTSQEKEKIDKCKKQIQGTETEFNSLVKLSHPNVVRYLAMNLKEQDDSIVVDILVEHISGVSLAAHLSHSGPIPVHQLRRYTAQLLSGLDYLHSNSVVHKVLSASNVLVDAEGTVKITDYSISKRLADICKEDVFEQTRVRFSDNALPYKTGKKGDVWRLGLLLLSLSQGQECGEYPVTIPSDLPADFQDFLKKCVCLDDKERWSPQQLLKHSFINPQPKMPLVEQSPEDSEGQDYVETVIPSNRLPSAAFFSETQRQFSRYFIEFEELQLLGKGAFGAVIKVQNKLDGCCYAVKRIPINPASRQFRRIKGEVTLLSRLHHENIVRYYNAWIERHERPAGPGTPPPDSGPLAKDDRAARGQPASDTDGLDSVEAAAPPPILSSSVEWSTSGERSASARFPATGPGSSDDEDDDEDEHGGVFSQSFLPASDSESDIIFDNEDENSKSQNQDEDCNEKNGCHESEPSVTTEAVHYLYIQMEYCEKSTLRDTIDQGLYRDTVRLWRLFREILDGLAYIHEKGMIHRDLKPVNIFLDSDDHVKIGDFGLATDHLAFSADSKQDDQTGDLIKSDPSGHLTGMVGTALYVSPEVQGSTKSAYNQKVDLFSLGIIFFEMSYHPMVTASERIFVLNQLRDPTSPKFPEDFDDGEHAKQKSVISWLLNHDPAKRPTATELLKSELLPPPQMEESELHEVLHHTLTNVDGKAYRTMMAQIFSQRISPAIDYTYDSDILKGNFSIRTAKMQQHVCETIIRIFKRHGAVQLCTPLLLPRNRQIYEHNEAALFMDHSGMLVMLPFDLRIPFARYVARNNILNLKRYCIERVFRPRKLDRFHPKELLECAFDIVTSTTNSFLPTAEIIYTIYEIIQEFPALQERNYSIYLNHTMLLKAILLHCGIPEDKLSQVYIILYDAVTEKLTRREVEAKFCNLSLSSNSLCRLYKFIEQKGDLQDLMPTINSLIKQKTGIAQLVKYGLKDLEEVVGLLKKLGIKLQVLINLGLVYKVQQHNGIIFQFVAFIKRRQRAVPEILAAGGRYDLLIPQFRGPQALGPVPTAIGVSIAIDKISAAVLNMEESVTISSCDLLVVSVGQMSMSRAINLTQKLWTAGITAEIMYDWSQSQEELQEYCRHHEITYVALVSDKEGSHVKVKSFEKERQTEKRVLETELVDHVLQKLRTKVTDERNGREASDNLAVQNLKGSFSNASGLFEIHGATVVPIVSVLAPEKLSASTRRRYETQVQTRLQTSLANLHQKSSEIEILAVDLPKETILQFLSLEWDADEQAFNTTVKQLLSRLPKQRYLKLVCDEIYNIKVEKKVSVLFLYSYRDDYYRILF

IC50 | SMILES
< 25 nM | COCCNC(=O)[C@@H]1CC[C@@H](Nc2ncc3c(Br)nn(-c4ccc5ncccc5c4)c3n2)C1 [Example 1, (1R,3R)-3-((3-bromo-1-(quinolin-6-yl)-1H-pyrazolo[3,4-d]pyrimidin-6-yl)amino)-N-(2-methoxyethyl)cyclopentane-1-carboxamide]
25 to 200 nM | COCCNC(=O)[C@H]1C[C@H](Nc2ncc3c(Br)nn(-c4ccc5ncccc5c4)c3n2)C1 [Example 2, (1r,3r)-3-((3-bromo-1-(quinolin-6-yl)-1H-pyrazolo[3,4-d]pyrimidin-6-yl)amino)-N-(2-methoxyethyl)cyclobutane-1-carboxamide]
500 to 1000 nM | COCCC(=O)N[C@H]1C[C@H](Nc2ncc3c(Br)nn(-c4ccc5ncccc5c4)c3n2)C1 [Example 3, N-((1r,3r)-3-((3-bromo-1-(quinolin-6-yl)-1H-pyrazolo[3,4-d]pyrimidin-6-yl)amino)cyclobutyl)-3-methoxypropanamide]
25 to 200 nM | COCCO[C@H]1C[C@H](Nc2ncc3c(Br)nn(-c4ccc5ncccc5c4)c3n2)C1 [Example 4, 3-bromo-N-((1r,3r)-3-(2-methoxyethoxy)cyclobutyl)-1-(quinolin-6-yl)-1H-pyrazolo[3,4-d]pyrimidin-6-amine]
500 to 1000 nM | COCc1noc([C@@H]2CC[C@@H](Nc3ncc4c(Br)nn(-c5ccc6ncccc6c5)c4n3)C2)n1 [Example 5, 3-bromo-N-((1R,3R)-3-(3-(methoxymethyl)-1,2,4-oxadiazol-5-yl)cyclopentyl)-1-(quinolin-6-yl)-1H-pyrazolo[3,4-d]pyrimidin-6-amine]
25 to 200 nM | COCCNC(=O)[C@@H]1CC[C@@H](Nc2ncc3c(Br)nn(-c4ccc5cnccc5c4)c3n2)C1 [Example 6, (1R,3R)-3-((3-bromo-1-(isoquinolin-6-yl)-1H-pyrazolo[3,4-d]pyrimidin-6-yl)amino)-N-(2-methoxyethyl)cyclopentane-1-carboxamide]
25 to 200 nM | CNC(=O)[C@@H]1CC[C@@H](Nc2ncc3c(Br)nn(-c4cc(F)c5ncccc5c4)c3n2)C1 [Example 8, (1R,3R)-3-((3-bromo-1-(8-fluoroquinolin-6-yl)-1H-pyrazolo[3,4-d]pyrimidin-6-yl)amino)-N-methylcyclopentane-1-carboxamide]
200 to 500 nM | CN1CCN(C(=O)[C@@H]2CC[C@@H](Nc3ncc4c(Br)nn(-c5ccc(N6CCOCC6)c(C#N)c5)c4n3)C2)CC1=O [Example 9, 5-(3-bromo-6-(((1R,3R)-3-(4-methyl-3-oxopiperazine-1-carbonyl)cyclopentyl)amino)-1H-pyrazolo[3,4-d]pyrimidin-1-yl)-2-morpholinobenzonitrile]
25 to 200 nM | CNC(=O)[C@@H]1CC[C@@H](Nc2ncc3c(Br)nn(-c4ccc(-c5ncco5)cc4)c3n2)C1 [Example 10, (1R,3R)-3-((3-bromo-1-(4-(oxazol-2-yl)phenyl)-1H-pyrazolo[3,4-d]pyrimidin-6-yl)amino)-N-methylcyclopentane-1-carboxamide]
25 to 200 nM | NC(=O)[C@@H]1CC[C@@H](Nc2ncc3c(Br)nn(-c4cc(F)c5ncccc5c4)c3n2)C1 [Example 12, (1R,3R)-3-((3-bromo-1-(8-fluoroquinolin-6-yl)-1H-pyrazolo[3,4-d]pyrimidin-6-yl)amino)cyclopentane-1-carboxamide]
< 25 nM | COCCNC(=O)[C@@H]1CC[C@@H](Nc2ncc3c(I)nn(-c4ccc5ncccc5c4)c3n2)C1 [Example 13, (1R,3R)-3-((3-iodo-1-(quinolin-6-yl)-1H-pyrazolo[3,4-d]pyrimidin-6-yl)amino)-N-(2-methoxyethyl)cyclopentane-1-carboxamide]
< 25 nM | COCCNC(=O)[C@@H]1CC[C@@H](Nc2ncc3c(Cl)nn(-c4ccc5ncccc5c4)c3n2)C1 [Example 14, (1R,3R)-3-((3-chloro-1-(quinolin-6-yl)-1H-pyrazolo[3,4-d]pyrimidin-6-yl)amino)-N-(2-methoxyethyl)cyclopentane-1-carboxamide]

Same assay, conditions: tested as described in Example 77; compound and/or hydrochloride, dihydrochloride or trifluoroacetic acid salt; read-out: IC 50 Activity

IC50 | SMILES
25 to 200 nM | C[C@H]1CN(C(=O)[C@@H]2CC[C@@H](Nc3ncc4c(Br)nn(-c5ccc6ncccc6c5)c4n3)C2)C[C@H](C)O1 [((1R,3R)-3-((3-bromo-1-(quinolin-6-yl)-1H-pyrazolo[3,4-d]pyrimidin-6-yl)amino)cyclo-pentyl)((2S,6S)-2,6-dimethylmorpholino) methanone]
25 to 200 nM | C[C@@H]1CN(C(=O)[C@@H]2CC[C@@H](Nc3ncc4c(Br)nn(-c5ccc6ncccc6c5)c4n3)C2)C[C@H](C)N1 [((1R,3R)-3-((3-bromo-1-(quinolin-6-yl)-1H-pyrazolo[3,4-d]pyrimidin-6-yl)amino)cyclo-pentyl)((3S,5R)-3,5-dimethylpiperazin-1-yl) methanone]
25 to 200 nM | C[C@H]1CN(C(=O)[C@@H]2CC[C@@H](Nc3ncc4c(Br)nn(-c5ccc6ncccc6c5)c4n3)C2)C[C@H](C)N1 [((1R,3R)-3-((3-bromo-1-(quinolin-6-yl)-1H-pyrazolo[3,4-d]pyrimidin-6-yl)amino)cyclo-pentyl)((3S,5S)-3,5-dimethylpiperazin-1-yl)methanone]
25 to 200 nM | C[C@@H]1CN(C(=O)[C@@H]2CC[C@@H](Nc3ncc4c(Br)nn(-c5ccc6ncccc6c5)c4n3)C2)CCO1 [((1R,3R)-3-((3-bromo-1-(quinolin-6-yl)-1H-pyrazolo[3,4-d]pyrimidin-6-yl)amino)cyclo-pentyl)((R)-2-methylmorpholino)methanone]
25 to 200 nM | C[C@@H]1COCCN1C(=O)[C@@H]1CC[C@@H](Nc2ncc3c(Br)nn(-c4ccc5ncccc5c4)c3n2)C1 [((1R,3R)-3-((3-bromo-1-(quinolin-6-yl)-1H-pyrazolo[3,4-d]pyrimidin-6-yl)amino)cyclo-pentyl)((R)-3-methylmorpholino)methanone]
25 to 200 nM | C[C@H]1CN(C(=O)[C@@H]2CC[C@@H](Nc3ncc4c(Br)nn(-c5ccc6ncccc6c5)c4n3)C2)CCO1 [((1R,3R)-3-((3-bromo-1-(quinolin-6-yl)-1H-pyrazolo[3,4-d]pyrimidin-6-yl)amino)cyclo-pentyl)((S)-2-methylmorpholino)methanone]
25 to 200 nM | O=C([C@@H]1CC[C@@H](Nc2ncc3c(Br)nn(-c4ccc5ncccc5c4)c3n2)C1)N1CCN[C@@H](CCO)C1 [((1R,3R)-3-((3-bromo-1-(quinolin-6-yl)-1H-pyrazolo[3,4-d]pyrimidin-6-yl)amino)cyclo-pentyl)((S)-3-(2-hydroxyethyl)piperazin-1-yl) methanone]
25 to 200 nM | O=C([C@@H]1CC[C@@H](Nc2ncc3c(Br)nn(-c4ccc5ncccc5c4)c3n2)C1)N1CCOCC1 [((1R,3R)-3-((3-bromo-1-(quinolin-6-yl)-1H-pyrazolo[3,4-d]pyrimidin-6-yl)amino)cyclo-pentyl)(morpholino)methanone]
25 to 200 nM | O=C([C@@H]1CC[C@@H](Nc2ncc3c(Br)nn(-c4ccc5ncccc5c4)c3n2)C1)N1CCNCC1 [((1R,3R)-3-((3-bromo-1-(quinolin-6-yl)-1H-pyrazolo[3,4-d]pyrimidin-6-yl)amino)cyclo-pentyl)(piperazin-1-yl)methanone]
25 to 200 nM | O=C([C@@H]1CC[C@@H](Nc2ncc3c(Br)nn(-c4ccc5ncccc5c4)c3n2)C1)N1CCN(CCO)CC1 [((1R,3R)-3-((3-bromo-1-(quinolin-6-yl)-1H-pyrazolo[3,4-d]pyrimidin-6-yl)amino)cyclopentyl)(4-(2-hydroxyethyl)piperazin-1-yl)methanone]
200 to 500 nM | O=C([C@@H]1CC[C@@H](Nc2ncc3c(Br)nn(-c4ccc5ncccc5c4)c3n2)C1)N1CCC2(CCCCO2)C1 (stereo partly drawn) [((1R,3R)-3-((3-bromo-1-(quinolin-6-yl)-1H-pyrazolo[3,4-d]pyrimidin-6-yl)amino)cyclopentyl)(6-oxa-2-azaspiro[4.5]decan-2-yl)methanone]
200 to 500 nM | C[C@@H]1CN(C(=O)[C@@H]2CC[C@@H](Nc3ncc4c(Br)nn(-c5ccc6ncccc6c5)c4n3)C2)C[C@H](C)O1 [((1R,3R)-3-((3-bromo-1-(quinolin-6-yl)-1H-pyrazolo[3,4-d]pyrimidin-6-yl)amino)cyclopentyl)((2S,6R)-2,6-dimethylmorpholino) methanone]
25 to 200 nM | COCCO[C@@H]1CCN(C(=O)[C@@H]2CC[C@@H](Nc3ncc4c(Br)nn(-c5ccc6ncccc6c5)c4n3)C2)C1 [((1R,3R)-3-((3-bromo-1-(quinolin-6-yl)-1H-pyrazolo[3,4-d]pyrimidin-6-yl)amino)cyclopentyl)((R)-3-(2-methoxyethoxy)pyrrolidin-1-yl)methanone]
25 to 200 nM | C[C@H]1COCCN1C(=O)[C@@H]1CC[C@@H](Nc2ncc3c(Br)nn(-c4ccc5ncccc5c4)c3n2)C1 [((1R,3R)-3-((3-bromo-1-(quinolin-6-yl)-1H-pyrazolo[3,4-d]pyrimidin-6-yl)amino)cyclopentyl)((S)-3-methylmorpholino) methanone]
25 to 200 nM | O=C([C@@H]1CC[C@@H](Nc2ncc3c(Br)nn(-c4ccc5ncccc5c4)c3n2)C1)N1C[C@H]2C[C@@H]1CO2 [((1R,4R)-2-oxa-5-azabicyclo[2.2.1]heptan-5-yl) ((1R,3R)-3-((3-bromo-1-(quinolin-6-yl)-1H-pyrazolo[3,4-d]pyrimidin-6-yl)amino)cyclo-pentyl)methanone]
500 to 1000 nM | CN(C)C(=O)N1CC[C@@H](Nc2ncc3c(Br)nn(-c4ccc5ncccc5c4)c3n2)C1 [(R)-3-((3-bromo-1-(quinolin-6-yl)-1H-pyrazolo [3,4-d]pyrimidin-6-yl)amino)-N,N-dimethyl-pyrrolidine-1-carboxamide]
200 to 500 nM | CS(=O)(=O)N1CC[C@@H](Nc2ncc3c(Br)nn(-c4ccc5ncccc5c4)c3n2)C1 [(R)-3-bromo-N-(1-(methylsulfonyl)pyrrolidin-3-yl)-1-(quinolin-6-yl)-1H-pyrazolo[3,4-d] pyrimidin-6-amine]
25 to 200 nM | C[C@H]1CN(C)C(=O)CN1C(=O)[C@@H]1CC[C@@H](Nc2ncc3c(Br)nn(-c4cc(F)c5ncccc5c4)c3n2)C1 [(S)-4-((1R,3R)-3-((3-bromo-1-(8-fluoroquinolin-6-yl)-1H-pyrazolo[3,4-d]pyrimidin-6-yl)amino)cyclopentane-1-carbonyl)-1,5-dimethyl-piperazin-2-one]
